Results as given in patent publication US10662100B2, “Chlorination-UV process for decomposition and detoxification of microcystin-LR” (priority 2016, dated 2020).
Where “and” joins values, the source holds several entries; their conditions need not be identical. Equal values may be shown once. Read-outs that look alike come from different tables or passages of the source. Starred links: 1 amine or outer side, 2 acyl side, 3 side chain; linkers in the order of their positions; H or OH if unused. Positions of bridges follow the written chain, without caps; N, C: chain ends. Non-standard residues stand in square brackets, D forms with d. Residues, ends and D or L forms follow the SMILES beside them. Adda = CO[C@@H](Cc1ccccc1)[C@@H](C)/C=C(C)/C=C/[C@H](N[*:1])[C@H](C)C(=O)[*:2]; dAsp(3S-Me) = C[C@H](C(=O)[*:3])[C@@H](N[*:1])C(=O)[*:2]; d(γGlu) = O=C(O)[C@@H](CCC(=O)[*:2])N[*:1]; NMeDha = C=C(NC)C(=O)O

Legend:
[1] = Chlorination of MC-LR, Total MC-LR by HPLC; assay type: physicochemical; conditions: pH 7.78
Description: (§1) Free chlorine and MC-LR solutions were freshly prepared before each experiment. The initial MC-LR concentration was 2.00×10^−6 mol/L (2.00 mg/L). The pH of MC-LR solutions before addition of chlorine was 7.78. Initial MC-LR decomposition experiments were conducted in unbuffered solutions in order to mitigate against participation of buffers and other inorganic ions in the reactions; pH measurements were not conducted after initiation of the reactions due to limited reaction volumes. In experiments that were designed to examine the effects of pH on MC-LR behavior, 10 mM phosphate buffer was added into MC-LR solution. The pH of solution was adjusted to 6.5, 7.5, and 8.5 by addition of 50 mM sulfuric acid or 100 mM sodium hydroxide.
(§2) […]. […] Pre-chlorinated samples were then collected in headspace-free, gas-tight containers for subsequent UV irradiation at a characteristic wavelength of 254 nm using a flat-plate collimated beam.
(§3) A high-performance liquid chromatography (HPLC) system (Surveyor, Thermo Scientific, FL, U.S.) equipped with an Acclaim PepMap100 C18 column (250 mm×1.0 mm I.D., 5 μm particle size) was used to measure MC-LR concentration (Merel et al., (2009) Chemosphere 74: 832-839). The HPLC mobile phase was CH3CN/H2O/TFA (60:40:0.1). Sample injection volumes were 20 μL with a flow rate of 1.0 mL/min. Detection was performed using a photodiode array at 238 nm. […]

[2] = UV254 photolysis and chlorine/UV process for MC-LR decomposition; assay type: physicochemical
Description: as §1, §2
Incident UV254 irradiance was 1.00×10^−4 W/cm^2, as measured by a calibrated radiometer (IL1700, International Light Technologies, Peabody, Mass., U.S.). UV254 doses applied in the experiments ranged from 0 to 720 mJ/cm^2 for exposure times ranging from 0 to 120 min. The actual UV254 doses delivered to the samples would have been slightly lower than these values because of the effects of reflection and absorbance, which were not accounted for. The collimated beam system used in these experiments has been described previously. Water samples were collected periodically for determination of MC-LR concentration and cytotoxicity, as described below. All experiments were conducted in triplicate and the values were expressed as mean±standard deviation (SD) from the replicate measurements.
as §3, with “(60:40:0.1).” for “(60:40:0.1). Sample injection volumes were 20 μL with a flow rate of 1.0 mL/min. Detection was performed using a photodiode array at 238 nm.”

[3] = test system: Hep3B cells; assay type: cell-based, human
[4] = test system: NIH3T3 cells; assay type: cell-based, mouse
[5] = cited from earlier work
[6] = 254 nm; cited from earlier work

Compound	apparent second-order rate constant for chlorination of MC-LR [1]	concentration of MC-LR over time [1]	MC-LR decomposition ([2]; pH 6.5)	photodecay constant (pseudo first-order) ([2]; pH 7.78)	MC-LR decomposition ([2]; pH 8.5)	change of cell viability resulting from UV254 exposure alone [3]	decrease of cell viability [3]	viability of Hep3B cells [3]	relative cell viability of Hep3B ([3]; pH 6.5)	relative cell viability of Hep3B ([3]; pH 8.5)	decrease of cell viability [4]	apparent second-order rate constant for chlorination of MC-LR ([5]; pH 6.1)	apparent second-order rate constant for chlorination of MC-LR ([5]; pH 7)	apparent second-order rate constant for chlorination of MC-LR ([5]; pH 8)	quantum yield Φ254 for photodegradation [6]	molar absorptivity ε254 [6]
C=C1C(=O)N[C@H](C)C(=O)N[C@@H](CC(C)C)C(=O)N[C@@H](C(=O)O)[C@H](C)C(=O)N[C@@H](CCCNC(=N)N)C(=O)N[C@@H](/C=C/C(C)=C/[C@H](C)[C@H](Cc2ccccc2)OC)[C@H](C)C(=O)N[C@@H](C(=O)O)CCC(=O)N1C [MC-LR] (R[Adda][d(γGlu)][NMeDha][dA]L[dAsp(3S-Me)]-OH; lactam N-7)	44.5 M⁻¹ s⁻¹	remained essentially constant	64%	0.000146 s⁻¹ and 0.000169 s⁻¹ and 0.000179 s⁻¹ and 0.000223 s⁻¹	83%	modest increase	up to 89%	roughly 50%	60%	roughly 80%	up to 76%	127.8 M⁻¹ s⁻¹	91.5 M⁻¹ s⁻¹	33.1 M⁻¹ s⁻¹	–	–
CN1CC(=O)NC1=N [creatinine]	–	–	–	–	–	–	–	–	–	–	–	–	–	–	0.011±0.002 mol/E	–
N-chloro-creatinine	–	–	–	–	–	–	–	–	–	–	–	–	–	–	0.144±0.011 mol/E	3911 M⁻¹ cm⁻¹
